Tests used:
[1] = system: myelin oligodendrocyte glycoprotein (MOG)-induced experimental allergic encephalomyelitis (EAE); test: MOG-induced experimental allergic encephalomyelitis (EAE), mouse model for MS; format: in vivo
Excerpt: If light chains were involved in the activation of mast cells in patients with MS, the prediction is that F991 may be of therapeutic interest in the treatment of MS. We tested if F991 was able to prevent of reduce development clinical signs in an established mouse model for MS, i.e. myelin oligodendrocyte glycoprotein (MOG)-induced experimental allergic encephalomyelitis (EAE). Mouse were sensitized with antigenic peptide 35-55 from MOG in complete freund adjuvant. At the day of sensitization and 3 days later, mice also received an injection with pertussis toxin. In general, 10-12 days after the start of sensitization mice develop clinical signs of MS, which can be scored in degree of paralysis (0=no paralysis, 1=tail flaccidity, 2=hind limb weakness, 3=hind limb paralysis, 4=forelimb paralysis or loss of ability to right supine, 5=death). To investigate if F991 is able to prevent development of clinical signs of MS, mice were daily injected with 50 µg F991/animal i.p. starting at day -1 until day 21. […] Control mice developed disease with a mean day of onset of 11.8 and a mean clinical score of 2.3. There was a significant difference in disease burden (mean cumulative EAE score) between the F991 (mean 4.2) treated group and the control group (mean 18.3). […] (Figure 17).

Ig light chain [2] = test: Stability of F991 in ointment, read out as activity in the ear swelling test after storage; format: in vivo, mice; details: Cremor Cetamacrogolis FNA, stored 2-3 months at room temperature and at 4 degrees Celsius
Experimental: (§1) • A. F991 was prepared as an ointment in Cremor Cetomacrogolis FNA and topically applied on the ear at 4 hours before hapten challenge. Subsequently, mice were passively sensitized with 2 µg TNP-specific Ig-LC n at 30 min before and ear thickness was measured 2 hours after hapten challenge of the ears. […] Therefore F991 was applied on the back of the mice instead of at the site of hapten challenge (ear). Mice were again sensitized and challenged as described above. […] This means that epicutaneous treatment should be done at the site of challenge (Figure 14). • C. Stability of F991 in ointment To determine the stability of F991 in ointment, different preparations of F991 in Cremor Cetamacrogolis FNA were tested for their activity after storage for 2-3 months at room temperature and at 4 degrees Celsius. The different preparations were applied at the ear as described in A. and subsequently ear swelling was monitored after hapten challenge of Ig-LC-sensitized animals. […] Mice were sensitized with a low molecular weight compound DNFB on the skin and footpads (on day 0 and 1). 5 days after the start of sensitization and 4 hours before local challenge with hapten, mice were treated with F991 on the ears.

DNFB-sensitized mice = test: Contact sensitivity after active sensitization with DNFB, ear swelling; format: in vivo; details: F991 topically on the ears 4 hours before challenge
Experimental: as §1, with “5 days after the start of sensitization and 4 hours before local challenge with hapten, mice were treated with F991 on the ears.” left out
Topical treatment of DNFB-sensitized mice at 4 hours before hapten challenge results in complete inhibition of the development of contact sensitivity response as determined by earswelling at 2 and 24 hours after challenge.

Ig light chain [3] = test: Ig-LC-induced ear swelling after hapten challenge of mice passively sensitized with TNP-specific Ig-LC (inhibition by F991); format: in vivo
Excerpt: F991 is developed as an antagonist of Ig light chain. The working hypothesis for this compound is that it binds to Ig light chains and thereby prevents binding of light chains to their putative receptors. F991 is a 9-mer peptide derived from the endogenous protein uromodulin. The potency of F991 to inhibit Ig-LC induced cutaneous reactions (ear swelling responses) was studied. Our working hypothesis for this compound is that it is an antagonist of Ig-LC and binds to Ig-LC and thereby prevents binding of Ig-LC to their putative receptors. F991 was administered in different dosages, via various administration routes.
Indicated amounts of F991 per mouse were intravenously injected at 30 min before hapten challenge. At that same time point mice were injected (passively sensitized) with TNP-specific Ig-LC or vehicle (PBS). […]
Mice were i.v. sensitized with 2 µg TNP-specific Ig light chain at 30 min before ear challenge with TNP. Control mice were injected with PBS instead of Ig light chain. […]

[4] = 50 µg F991/animal i.p. daily from day -1 until day 21

F991: 9-mer peptide derived from the endogenous protein uromodulin, developed as an antagonist of Ig light chain; sequence probably AHWSGHCCL
development of clinical signs of paralysis [1, 4]: completely prevented
disease burden (mean cumulative EAE score) [1, 4]: 4.2
clinical symptoms after termination of the treatment ([1]; termination of F991 at 21 days after sensitization): some minor clinical symptoms
stability of F991 in ointment (activity after storage) (Ig light chain [2]): retained its activity
ear swelling, contact sensitivity (DNFB-sensitized mice; 2 hours after challenge): completely inhibited
ear swelling, contact sensitivity (DNFB-sensitized mice; 24 hours after challenge): completely inhibited
block of the Ig-LC -induced ear swelling (Ig light chain [3]; 2 µg per mouse (1.9 nmole) i.v. 30 min before hapten challenge, 2 hours after challenge): completely block
induction of an ear swelling response (Ig light chain [3]; 50 µg F991 intraperitoneally at 4 or 24 hours before hapten challenge): completely prevented
Ig-LC -induced ear swelling after hapten challenge (Ig light chain [3]; 50 µg F991 subcutaneously at 4 or 24 hours before hapten challenge): completely inhibited
systemic inhibition of the Ig-LC effects (Ig light chain [3]; F991 ointment applied on the back of the mice instead of the ear): does not result in systemic inhibition
inhibition of the ear swelling induced after hapten challenge (Ig light chain [3]; F991 ointment in Cremor Cetomacrogolis FNA applied on the ear 4 hours before hapten challenge, 2 hours after challenge): dose-dependent inhibition
inhibition of the ear swelling response (Ig light chain [3]; different amounts of F991 i.v. 30 min before hapten challenge, ear thickness 2 hours after challenge): dose-dependent inhibition

From patent publication EP1342779A1, “Means and methods for manipulating hypersensitivity-like responses” (Fornix Biosciences N.V., priority 2002, dated 2003)
